Experimental data reported in publication PMC6105163, “Abaloparatide Exerts Bone Anabolic Effects with Less Stimulation of Bone Resorption-Related Factors: A Comparison with Teriparatide” (Calcified Tissue International, 2018).
Read-outs that look alike come from different tables or passages of the source.

Key:
[1] = tested on: SaOS-2; assay: M-CSF protein secretion (ELISA); format: cell-based, human; conditions: 100 nmol/L, n = 3; for M-CSF protein secretion: continuous treatment (Fig. 2c), ABL and TPTD did not differ significantly
Description: SaOS-2 was cultured in 48-well plates at a density of 5 × 10^4 cells/well in DM for 10 days. The medium was replaced with serum-free DM for culture under starvation conditions. Twenty-four hours after the start of starvation, cells were treated with ABL and TPTD at a concentration of 100 nmol/L. Six hours after treatment, cells were washed with PBS twice, and cultured with peptide-free or peptide-containing medium for the rest of the experimental period.
(§1) Human Quantikine M-CSF, Sclerostin, and DKK1 ELISA kits (R&D Systems, Minneapolis, MN, USA) were used to quantify M-CSF, sclerostin, and DKK1, respectively, in the cell supernatants according to the manufacturer’s instructions.

[2] = tested on: OVX rats; assay: Lumbar spine (L4-L5) BMD in OVX rats; format: in vivo, Sprague–Dawley rats (female); conditions: once daily s.c. for 28 days, BMD on day 26 (PIXImus2), vs OVX, n = 8 or 9
Text: (§2) Ten-week-old female Sprague–Dawley rats were purchased from Charles River Laboratories Japan, Inc. (Kanagawa, Japan) and ovariectomized at 12 weeks old. Thirty-five days after surgery, rats received once daily subcutaneous injection of ABL, TPTD, or vehicle (saline containing 0.1% heat-inactivated rat serum) for 28 days. Day 0 indicates the day when administration was started. On day 26, rats were anesthetized with intraperitoneally administered pentobarbital sodium and the lumbar spine (L4 and L5) BMD was measured with a PIXImus2 (GE Healthcare, Chicago, IL). Blood (collected from the tail vein) and urine samples were obtained on day 28. Prior to collection, rats were fasted for 15–17 h. Rats were euthanized after the blood and urine collection, and the lumbar spine was removed for the measurement of bone strength. All experimental procedures were approved by the Animal Care and Use Committee of Teijin Institute for Bio-Medical Research.

[3] = tested on: OVX rats; assay: Bone resorption marker urine DPD/Cr in OVX rats; format: in vivo, Sprague–Dawley rats (female); conditions: once daily s.c.; for urinary DPD/Cr at 5.0 nmol/kg: day 28; for urinary DPD/Cr, significance: day 28, n = 8 or 9
Text: as §2
Serum P1NP concentration was measured with a Rat/Mouse PINP EIA kit (Immunodiagnostic Systems, Boldon, UK). Urine DPD concentration was measured with an Osteolinks DPD kit (Quidel, San Diego, CA, USA). Urine creatinine (Cr) concentration was measured with a 7180 Autoanalyzer (Hitachi High-Technologies Corporation, Tokyo, Japan).

[4] = tested on: osteocyte-like SaOS-2; assay: Sclerostin and DKK1 protein secretion (ELISA); format: cell-based, human; conditions: 100 nmol/L, transient (Fig. 4d); efficacies of ABL and TPTD not significantly different; n = 3
Description: (§3) SaOS-2 was cultured in 48-well plates at a density of 5 × 10^4 cells/well in DM for 30 days. Cells were treated with ABL and TPTD at a concentration of 100 nmol/L. Six hours after treatment, cells were washed with PBS twice, and cultured with peptide-free or peptide-containing medium for the rest of the experimental period.
as §1

[5] = cited from earlier work
[6] = tested on: osteocyte-like SaOS-2; assay: WNT signaling antagonist gene expression (qRT-PCR); format: cell-based, human; conditions: 100 nmol/L, n = 3; for DKK1 (gene expression and protein secretion) / sclerostin (gene expression and protein secretion): continuous treatment (Fig. 4e, f), qRT-PCR and ELISA; for DKK1 gene expression / sclerostin gene expression: treatment limited to first 6 h (Fig. 4c), day 30 cells
Description: as §3
Cells were lysed and total RNA was extracted using an RNeasy Mini Kit (Qiagen, Valencia, CA, USA). RNA was reverse-transcribed into cDNA using the SuperScript III First-Strand Synthesis System for RT-PCR (Invitrogen, Carlsbad, CA, USA). Quantitative RT-PCR was performed on a 7500 Real-Time PCR System (Applied Biosystems) using Power SYBR Green PCR Master Mix (Thermo Fisher Scientific, Waltham, MA, USA). The primers used in this study were as follows: 5′-CGATGGTGGATGGCTCATG-3′ (forward) and 5′-ACCAGATGGGATGTCGGTG-3′ (reverse) for RANKL, 5′-[…]-3′ (forward) and 5′-[…]-3′ (reverse) for M-CSF, 5′-[…]-3′ (forward) and 5′-[…]-3′ (reverse) for OPG, 5′-[…]-3′ (forward) and 5′-[…]-3′ (reverse) for IGF1, 5′-[…]-3′ (forward) and 5′-[…]-3′ (reverse) for osteocalcin, 5′-[…]-3′ (forward) and 5′-[…]-3′ (reverse) for DMP1, 5′-[…]-3′ (forward) and 5′-[…]-3′ (reverse) for SOST, 5′-[…]-3′ (forward) and 5′-[…]-3′ (reverse) for DKK1, 5′-GTGAAGGTCGGAGTCAACG-3′ (forward) and 5′-TGAGGTCAATGAAGGGGTC-3′ (reverse) for GAPDH.

[7] = tested on: PTH1R; conditions: ref [22]; cited from earlier work
Text: It is unclear why ABL stimulates lower expression of bone resorption-related factors than TPTD with transient treatment only. Recently, it was reported that PTH1R has at least two types of active conformations and that the binding conformation selectivity differs between ABL and TPTD [21, 22]. This difference further affects the duration of the downstream signaling. […] We therefore thought that the difference in bone resorption-related factors could arise from the d ...

Substance	M-CSF protein secretion [1]	M-CSF protein secretion, ABL vs TPTD ([1]; transient treatment (first 6 h) (Fig. 2e))	lumbar spine BMD [2]	urinary DPD/Cr at 5.0 nmol/kg [3]	urinary DPD/Cr, significance [3]	DKK1 protein secretion [4]	sclerostin protein secretion [4]	half-life in humans ([5]; human, in vivo, sc)	DKK1 (gene expression and protein secretion) [6]	sclerostin (gene expression and protein secretion) [6]	DKK1 gene expression [6]	sclerostin gene expression [6]	duration of cAMP production after wash-out of unbound ligand [7]	half-life in humans ([5]; subcutaneous injection, ref [27], [28])
[Glu^22,25, Leu^23,28,31, Aib^29, Lys^26,30] human PTHrP(1–34)–NH2 [Abaloparatide]	increased	significantly less with ABL treatment than with TPTD	significantly increased	a slight increase	no significant differences	inhibited	inhibited	approximately an hour or less	similarly inhibited	similarly inhibited	similarly suppressed	similarly suppressed	transient	
human PTH(1–34) [Teriparatide]	increased		significantly increased	a slight increase	no significant differences	inhibited	inhibited		similarly inhibited	similarly inhibited	similarly suppressed	similarly suppressed	sustained after the unbound ligand is washed out	approximately an hour or less
